Key:
[1] = Half life in rat at 1 mg/kg, iv and 2 mg/kg, po; assay type: ADME, organism-based; conditions: in vivo
[2] = Oral bioavailability in rat at 2 mg/kg, po; assay type: ADME, organism-based; conditions: in vivo
[3] = Volume of distribution at steady state in rat at 1 mg/kg, iv and 2 mg/kg, po; assay type: ADME, organism-based; conditions: in vivo, read-out: Vdss
[4] = Plasma clearance in rat at 1 mg/kg, iv and 2 mg/kg, po; assay type: ADME, organism-based
Dipeptidyl peptidase 9 = Dipeptidyl peptidase 9 (Homo sapiens, UniProt Q86TI2); assay: Inhibition of DPP9
Dipeptidyl peptidase 2 = Dipeptidyl peptidase 2 (Homo sapiens, UniProt Q9UHL4); assay: Inhibition of QPP
[5] = Cmax in rat at 2 mg/kg, po; assay type: ADME, organism-based; parameters: dose 2 mg/kg, route oral; conditions: in vivo
Dipeptidyl peptidase 4 = Dipeptidyl peptidase 4 (Homo sapiens, UniProt P27487); assay: Inhibition of DPP4
Dipeptidyl peptidase 8 = Dipeptidyl peptidase 8 (Homo sapiens, UniProt Q6V1X1); assay: Inhibition of DPP8
Dipeptidyl peptidase 8, sequence (Q6V1X1 whole entry): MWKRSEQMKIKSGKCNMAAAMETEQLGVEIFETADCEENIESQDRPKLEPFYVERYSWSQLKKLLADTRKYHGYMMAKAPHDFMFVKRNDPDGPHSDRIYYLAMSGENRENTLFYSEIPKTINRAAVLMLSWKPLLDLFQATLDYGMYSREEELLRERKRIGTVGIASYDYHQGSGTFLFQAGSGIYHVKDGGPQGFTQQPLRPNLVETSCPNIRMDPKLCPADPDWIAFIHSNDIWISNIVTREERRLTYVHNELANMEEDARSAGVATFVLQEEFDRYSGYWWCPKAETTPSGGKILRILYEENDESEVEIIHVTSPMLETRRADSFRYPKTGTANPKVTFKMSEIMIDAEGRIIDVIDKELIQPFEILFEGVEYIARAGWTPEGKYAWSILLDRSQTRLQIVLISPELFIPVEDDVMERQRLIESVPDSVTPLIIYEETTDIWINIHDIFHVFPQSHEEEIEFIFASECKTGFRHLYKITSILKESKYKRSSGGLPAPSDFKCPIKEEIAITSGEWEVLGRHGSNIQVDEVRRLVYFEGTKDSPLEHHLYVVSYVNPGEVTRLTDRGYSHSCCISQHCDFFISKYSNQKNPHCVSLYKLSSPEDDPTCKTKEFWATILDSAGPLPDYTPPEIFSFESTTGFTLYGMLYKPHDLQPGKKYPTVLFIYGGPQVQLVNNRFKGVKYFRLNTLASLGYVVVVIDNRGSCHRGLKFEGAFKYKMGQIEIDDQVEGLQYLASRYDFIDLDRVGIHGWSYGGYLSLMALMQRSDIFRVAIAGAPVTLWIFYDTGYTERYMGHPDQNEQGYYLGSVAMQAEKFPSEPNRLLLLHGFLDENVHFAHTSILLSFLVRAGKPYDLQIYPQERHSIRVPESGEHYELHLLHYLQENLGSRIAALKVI

Dipeptidyl peptidase 4, sequence (P27487 whole entry): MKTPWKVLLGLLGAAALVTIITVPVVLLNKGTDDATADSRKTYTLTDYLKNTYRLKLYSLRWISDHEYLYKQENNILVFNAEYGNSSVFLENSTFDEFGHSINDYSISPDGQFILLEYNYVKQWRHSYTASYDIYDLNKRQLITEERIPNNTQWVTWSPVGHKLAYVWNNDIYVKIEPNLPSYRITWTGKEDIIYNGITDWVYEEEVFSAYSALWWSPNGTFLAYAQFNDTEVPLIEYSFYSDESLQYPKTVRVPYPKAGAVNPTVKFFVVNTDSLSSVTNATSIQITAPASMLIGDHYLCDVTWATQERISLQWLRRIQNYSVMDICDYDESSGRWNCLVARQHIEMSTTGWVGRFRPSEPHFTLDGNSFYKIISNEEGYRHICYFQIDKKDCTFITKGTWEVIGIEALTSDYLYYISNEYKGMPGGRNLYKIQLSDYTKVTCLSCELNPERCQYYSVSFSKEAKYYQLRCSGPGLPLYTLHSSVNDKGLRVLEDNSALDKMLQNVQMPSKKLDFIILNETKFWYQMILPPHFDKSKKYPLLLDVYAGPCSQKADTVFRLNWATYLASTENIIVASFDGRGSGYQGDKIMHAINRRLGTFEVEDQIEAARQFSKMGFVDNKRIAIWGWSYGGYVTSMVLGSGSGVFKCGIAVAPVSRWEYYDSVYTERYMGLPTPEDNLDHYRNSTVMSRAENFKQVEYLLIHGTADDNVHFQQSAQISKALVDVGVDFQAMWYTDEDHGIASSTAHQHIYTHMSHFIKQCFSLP
Dipeptidyl peptidase 9, sequence (Q86TI2 whole entry): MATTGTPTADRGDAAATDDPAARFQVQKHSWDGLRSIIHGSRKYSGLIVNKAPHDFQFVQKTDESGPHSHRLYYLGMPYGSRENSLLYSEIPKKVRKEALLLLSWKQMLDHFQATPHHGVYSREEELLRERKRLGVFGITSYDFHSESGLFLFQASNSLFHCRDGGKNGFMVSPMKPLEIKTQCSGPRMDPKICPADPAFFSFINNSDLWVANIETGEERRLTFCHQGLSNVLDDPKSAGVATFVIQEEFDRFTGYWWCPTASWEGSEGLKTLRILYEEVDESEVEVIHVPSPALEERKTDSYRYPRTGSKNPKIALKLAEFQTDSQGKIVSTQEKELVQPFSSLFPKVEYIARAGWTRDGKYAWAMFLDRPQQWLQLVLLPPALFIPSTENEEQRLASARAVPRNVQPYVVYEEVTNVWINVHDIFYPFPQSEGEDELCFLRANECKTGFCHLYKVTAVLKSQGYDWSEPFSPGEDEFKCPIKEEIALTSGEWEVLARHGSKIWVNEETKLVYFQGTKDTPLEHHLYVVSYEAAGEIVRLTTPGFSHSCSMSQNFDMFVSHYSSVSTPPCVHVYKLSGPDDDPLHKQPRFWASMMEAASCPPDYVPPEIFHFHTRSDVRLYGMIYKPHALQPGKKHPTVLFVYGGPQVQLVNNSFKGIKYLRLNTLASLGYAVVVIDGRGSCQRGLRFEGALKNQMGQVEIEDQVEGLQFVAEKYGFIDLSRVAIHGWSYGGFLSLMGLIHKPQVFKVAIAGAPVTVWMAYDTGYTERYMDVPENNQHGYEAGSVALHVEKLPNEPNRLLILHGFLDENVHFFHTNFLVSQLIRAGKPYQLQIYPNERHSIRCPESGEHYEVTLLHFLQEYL

Row | half-life [1] [h] | bioavailability [2] [%] | Vd [3] [L/kg] | clearance [4] [mL/min/kg] | IC50 (Dipeptidyl peptidase 9) [µM] | IC50 (Dipeptidyl peptidase 2) [µM] | Cmax [5] [nM] | IC50 (Dipeptidyl peptidase 4) [µM] | IC50 (Dipeptidyl peptidase 8) [µM] | Compound
1 | 1.2 | 40 | 8 | 81 | > 100 | 39 | 98 |  |  | CC1c2nc(C(F)(F)F)n(C)c2CCN1C(=O)C[C@H](N)Cc1cc(F)c(F)cc1F (stereo not given in full)
2 |  |  |  |  | > 100 | > 100 |  | 0.19 |  | CC1c2nc(C(F)(F)F)n(C)c2CCN1C(=O)C[C@H](N)Cc1cc(F)ccc1F (stereo in doubt; 63a)
3 |  |  |  |  | > 100 | 39 |  | 0.78 |  | Cn1c(C(F)(F)F)nc2c1CCN(C(=O)C[C@H](N)Cc1cc(F)c(F)cc1F)C2Cc1ccc(F)cc1 (stereo in doubt; 72a)
4 |  |  |  |  | > 100 | > 100 |  | 0.065 |  | CC1c2nc(C(F)(F)F)n(C)c2CCN1C(=O)C[C@H](N)Cc1cc(F)ccc1F (stereo in doubt; 63b)
5 |  |  |  |  | > 100 | 37 |  | 0.11 |  | Cn1c(C(F)(F)F)nc2c1CCN(C(=O)C[C@H](N)Cc1cc(F)c(F)cc1F)C2C1CC1 (stereo in doubt; 68b)
6 |  |  |  |  | > 100 | 15 |  | 0.0058 |  | Cn1c(C(F)(F)F)nc2c1CCN(C(=O)C[C@H](N)Cc1cc(F)c(F)cc1F)C2Cc1ccc(F)cc1 (stereo in doubt; 72b)
7 |  |  |  |  | > 100 | 46 |  | 0.57 |  | Cn1c(C(F)(F)F)nc2c1CCN(C(=O)C[C@H](N)Cc1cc(F)c(F)cc1F)C2Cc1ccccc1 (stereo in doubt; 71a)
8 |  |  |  |  | > 100 | 76 |  | 0.38 |  | Cn1cnc2c1CCN(C(=O)C[C@H](N)Cc1cc(F)c(F)cc1F)C2C(F)(F)F (stereo in doubt; 67a)
9 | 1.5 | 16 | 6.5 | 64 | > 100 | 20 | 72 | 0.0084 |  | Cn1c(C(F)(F)F)nc2c1CCN(C(=O)C[C@H](N)Cc1cc(F)c(F)cc1F)C2Cc1ccccc1 (stereo in doubt; 71b)
10 |  |  |  |  | > 100 | > 100 |  | 0.34 |  | Cn1c(C(F)(F)F)nc2c1CCN(C(=O)C[C@H](N)Cc1cc(F)c(F)cc1F)C2C1CC1 (stereo in doubt; 68a)

Further lines, the molecule ahead of its results:

Row | Compound | half-life [1] [h] | bioavailability [2] [%] | Vd [3] [L/kg] | clearance [4] [mL/min/kg] | IC50 (Dipeptidyl peptidase 9) [µM] | IC50 (Dipeptidyl peptidase 2) [µM] | Cmax [5] [nM] | IC50 (Dipeptidyl peptidase 4) [µM] | IC50 (Dipeptidyl peptidase 8) [µM]
11 | CC1c2nc(C3CC3)n(C)c2CCN1C(=O)C[C@H](N)Cc1cc(F)c(F)cc1F (stereo not given in full) [listing 1 of 2 here] |  |  |  |  |  | 30 |  |  | 
12 | CC1c2nc(C(C)(C)C)n(C)c2CCN1C(=O)C[C@H](N)Cc1cc(F)c(F)cc1F (stereo in doubt; 70b) |  |  |  |  |  | 19 |  | 0.37 | 
13 | Cn1c(C(F)(F)F)nc2c1CCN(C(=O)C[C@H](N)Cc1cc(F)ccc1F)C2 |  |  |  |  | > 100 | 92 |  | 0.15 | 
14 | N[C@@H](CC(=O)N1CCc2c(nc(C(F)(F)F)n2Cc2ccc(F)cc2)C1)Cc1cc(F)ccc1F |  |  |  |  | > 100 | 64 |  | 0.25 | 
15 | N[C@@H](CC(=O)N1CCc2[nH]c(C(F)(F)F)nc2C1)Cc1cc(F)ccc1F |  |  |  |  |  | > 100 |  | 0.14 | 
16 | CC(C)Cn1c(C(F)(F)F)nc2c1CN(C(=O)C[C@H](N)Cc1cc(F)ccc1F)CC2 |  |  |  |  | > 100 | 85 |  | 0.26 | > 100
17 | Cn1cnc2c1CCN(C(=O)C[C@H](N)Cc1cc(F)c(F)cc1F)C2C(F)(F)F (stereo in doubt; 67b) | 1.4 | 16 | 8.3 | 93 | > 100 | 38 | 50 | 0.05 | 
18 | N[C@@H](CC(=O)N1CCc2nc(C(F)(F)F)n(Cc3ccc(F)cc3)c2C1)Cc1cc(F)ccc1F |  |  |  |  | > 100 | 56 |  | 0.25 | > 100
19 | CC(C)Cn1c(C(F)(F)F)nc2c1CCN(C(=O)C[C@H](N)Cc1cc(F)ccc1F)C2 |  |  |  |  | > 100 | 49 |  | 0.22 | 
20 | CC1c2nc(C(C)(C)C)n(C)c2CCN1C(=O)C[C@H](N)Cc1cc(F)c(F)cc1F (stereo in doubt; 70a) |  |  |  |  |  | 37 |  | 0.63 | 
21 | CCn1c(C(F)(F)F)nc2c1CCN(C(=O)C[C@H](N)Cc1cc(F)ccc1F)C2 |  |  |  |  | > 100 | > 100 |  | 0.18 | 
22 | CC1c2nc(C3CC3)n(C)c2CCN1C(=O)C[C@H](N)Cc1cc(F)c(F)cc1F (stereo not given in full) [listing 2 of 2 here] |  |  |  |  |  | 90 |  |  | 

Reference: ChEMBL document CHEMBL1140494, “Imidazopiperidine amides as dipeptidyl peptidase IV inhibitors for the treatment of diabetes” (Bioorg Med Chem Lett, 2007)
